Experimental data published in patent publication US5376679A, “Bicyclic or tricyclic biocidal compounds” (Shell Internationale Research Maatschappij B.V., priority 1988, dated 1994).
Values after ≈ are worked out from the molar mass of the structure shown.

Columns and labels:
[1] = test system: Cladosporium resinae; assay: Minimum inhibitory concentration, Cladosporium resinae (Cr); type: cell-based; settings: Amorphotheca resinae, 30° C., 3, 7 and 10 days
Procedure: (§1) Inocula of the fungi Aspergillus niger, Cladosporium resinae and Chaetomium globosum were prepared containing 5×10^5 conidia/ml in a potato dextrose broth. The potato dextrose broth was prepared by suspending 4 g potato extract and 20 g dextrose in 1 liter of distilled water, warming to achieve solution, separating into aliquots and sterilising by autoclaving at 121° C. for 15 minutes.
(§2) Test procedures were as follows:
(§3) (ii) Dilution Series for Other Test Bacteria, Yeast and Filamentous Fungi
(§4) Dilution series from the stock solution of each compound were prepared in sterile distilled water. These contained 50, 100, 500 and 1000 ppm compound. To duplicate wells of a compartmentalised square petri dish 0.3 ml of each test compound concentration was added together with 2.7 ml of one of the microbial inocula described above. This gave final concentrations of the test compound of 5, 10, 50 and 100 ppm.
(§5) After incubation, in the dark, at 30° C. the wells were examined for the presence or absence of growth. Bacterial and yeast cultures were examined after 24 hours and 72 hours incubation and the fungi cultures after 3, 7 and 10 days.
(§6) By means of the above tests minimum inhibitory concentrations were determined for the various test compounds.

[2] = test system: Staphylococcus aureus; assay: Minimum inhibitory concentration, Staphylococcus aureus (Sa); type: cell-based, Staphylococcus aureus (NCIB 6571); settings: 30° C., 24 and 72 hours
Procedure: (§7) In respect of S. aureus, B. subtilis and E. coli, the microorganisms were cultured in 50 ml aliquots of a tryptone soya broth in 250 ml conical flasks at 30° C. on a rotary shaker at 200 rpm for 24 hours. Tryptone soya broth was prepared by adding 17 g pancreatic digest of casein, 3 g […] digest of soyabean meal, 5 g of sodium chloride, 2.5 g of dipotassium hydrogen phosphate and 2.5 g of dextrose to 1 liter of distilled water, mixing and sterilising by autoclaving at 121° C. for 15 minutes. 1 ml aliquots of the resulting cultures were mixed with 99 ml of fresh tryptone soya broth and used as inocula for tests. […] Test procedures were as follows: (ii) Dilution Series for Other Test Bacteria, Yeast and Filamentous Fungi Dilution series from the stock solution of each compound were prepared in sterile distilled water. These contained 50, 100, 500 and 1000 ppm compound. To duplicate wells of a compartmentalised square petri dish 0.3 ml of each test compound concentration was added together with 2.7 ml of one of the microbial inocula described above. […] After incubation, in the dark, at 30° C. the wells were examined for the presence or absence of growth. Bacterial and yeast cultures were examined after 24 hours and 72 hours incubation and the fungi cultures after 3, 7 and 10 days. By means of the above tests minimum inhibitory concentrations were determined for the various test compounds.

[3] = test system: Saccharomyces cerevisiae; assay: Minimum inhibitory concentration, yeast (Sc); type: cell-based, Saccharomyces cerevisiae (ATCC 9763); settings: 30° C., 24 and 72 hours
Procedure: Inocula of S. cerevisiae were prepared as for S. aureus, B. subtilis and E. coli, but using yeast malt broth in place of the typtone soya broth. The yeast malt broth was prepared by suspending 3 g yeast extract, 3 g malt extract, 5 g peptone and 10 g dextrose in 1 liter of distilled water, warming to achieve solution and sterilising by autoclaving at 121° C. for 15 minutes.
as §2, §3, §4, §5, §6

[4] = test system: Aspergillus niger; assay: Minimum inhibitory concentration, Aspergillus niger (An); type: cell-based, Aspergillus niger (CMI 17454); settings: 30° C., 3, 7 and 10 days
Procedure: as §1, §2, §3, §4, §5, §6

[5] = test system: Bacillus subtilis; assay: Minimum inhibitory concentration, Bacillus subtilis (Bs); type: cell-based; settings: 30° C., 24 and 72 hours
Procedure: as §7

[6] = test system: Escherichia coli; assay: Minimum inhibitory concentration, Escherichia coli (Ec); type: cell-based, Escherichia coli (NCIB 9517); settings: 30° C., 24 and 72 hours
Procedure: as §7

[7] = test system: Desulfovibrio sp.; assay: Minimum inhibitory concentration, sulphate-reducing bacteria (Dsp); type: cell-based; settings: 30° C., 2, 5 and 10 days
Procedure: The sulphate reducing bacteria Desulfovibrio sp. were cultured in a modified Postgate's Medium B for 48 hours at 30° C. and used directly as an inoculum. The modified Postgate's Medium B consisted of 0.5 g dipotassium hydrogen phosphate, 1 g ammonium chloride, 1 g sodium sulphate, 5 g sodium lactate, 1 g yeast extract, 0.1 ml thioglycolic acid, 0.1 ml ascorbic acid, 0.5 g ferrous sulphate heptahydrate, 750 ml aged seawater and 250 ml distilled water, pH adjusted to 7.8, divided into aliquots and sterilised by autoclaving at 121° C. for 15 minutes. […] Test procedures were as follows: (i) Suphate-reducing Bacteria Test Dilution Series Duplicate aliquots (9.9 ml) of dilution series from the stock solutions of each compound were prepared in a modified Postgate's Medium B described above. These contained 100 ppm compound. These were then inoculated with 0.1 ml of inoculum. After incubation at 30° C., the presence or absence of growth--as indicated by a blackening of the medium due to ferrous sulphide production--was recorded at 2, 5 and 10 days. […] By means of the above tests minimum inhibitory concentrations were determined for the various test compounds.

[8] = test system: Chaetomium globosum; assay: Minimum inhibitory concentration, Chaetomium globosum (Chg); type: cell-based
Procedure: as §1, §2, §3, §4, §5, §6

[9] = test system: Pseudocercosporella herpotrichoides; assay: In vitro activity against wheat eyespot (Ph); type: cell-based; design: Ph: activity against wheat eyespot: scale not given here; settings: in vitro, 100 ppm in agar, 11 days; activity grade 1 or 2, not defined
Procedure: (c) Activity Against Wheat Eyespot (Pseudocercosporella herpotrichoides; Ph)
The test is an in vitro one. Samples are prepared wherein 0.7 mls solution containing 2 mg active material dissolved in acetone is evenly dispersed in 20 ml molten half-strength potato dextrose agar (formed by dissolving 2 g potato extract, 10 g dextrose and 7.5 g agar in 1 liter of water and sterilising for 15 minutes and 121° C.) and the resulting 20 ml portions are allowed to set in 9 cm petri dishes. The concentration of active material in the resulting samples is 100 ppm. Upon setting, two plugs of 5 mm diameter taken from the advancing edge of a stock plate of a 3 to 4 week old culture of P.herpotrichoides on full strength potato dextrose agar, incubated at 20°-22° C. in darkness, are placed, equally spaced on the surface of each sample, mycelial side uppermost. The samples are incubated for 11 days at 20°-22° C. in darkness before assessment. Diametric growth is measured with the width of the plug subtracted and results compared with growth on a sample wherein 0.7 ml acetone containing no active material is dispersed in 20 ml half-strength potato agar.

[10] = test system: Fusarium culmorum; assay: Activity against seedling wheat blight, soil drench (Fs); type: in vivo; design: scale not given here; settings: 10 kg/ha, 21 days, activity grade 1 or 2, not defined
Procedure: (d) Activity Against Seedling Wheat Blight (Fusarium culmorum; Fs)
The test is an anti-sporulant one using a soil drench. Surface sterilised wheat seeds (var Waggoner) are inoculated by soaking in an aqueous suspension containing 7×10^5 spores/ml (60 mg seed per 80 ml suspension) at 22° C. for 6 hours. The seeds are then sown in pots (5 per pot) in sand at a depth of 1 cm. 1 day after inoculation and planting the active material is applied at a rate of 10 kg/ha by pouring on a soil drench (concentration 0.36 g/l active material in 12% v/v acetone/water) evenly over the sand. The pots are then transferred to a glasshouse, kept at 25° C. and watered sparingly. 21 days after inoculation the resulting seedlings are removed from the pots and their roots are gently washed. Visual assessment is made based on lesion development on stem base and upper roots in comparison with control seedlings.

[11] = test system: Plasmopara viticola; assay: Direct protectant activity against vine downy mildew (Pvp); type: in vivo; design: Pvp: direct protectant activity against vine downy mildew: scale not given here; settings: for Pvp: direct protectant activity against vine downy mildew: foliar spray, 1 kg/ha, activity grade 1 or 2, not defined
Excerpt: (a) Direct Protectant Activity Against Vine Downy Mildew (Plasmopara viticola; Pvp)
The test is a direct protectant one, using a foliar spray. The lower surfaces of leaves of whole vine plants (cv Cabernet Sauvignon) are sprayed with a solution of active material in 1:1 v/v water/acetone containing 0.04% w "Triton X-155" (trade mark) (octylphenol polyoxyethylene surfactant), at a dosage of 1 kilogram of active material per hectare using a track sprayer which delivers 620 liters/ha, and after a subsequent 24 hours under normal glasshouse conditions the lower surfaces of the leaves are inoculated by spraying with an aqueous solution containing 10^4 zoosporangia/ml. The inoculated plants are kept for 24 hours in a high humidity compartment, 5 days under normal glasshouse conditions and then returned for a further 24 hours to high humidity. Assessment is based on the percentage of leaf area covered by sporulation compared with that on control leaves.

[12] = test system: Erysiphe graminis f.sp. hordei; assay: Direct antisporulant activity against barley powdery mildew (Eg); type: in vivo; design: scale not given here; settings: foliar spray, 1 kg/ha; activity grade 1 or 2, not defined
Excerpt: (f) Activity Against Barley Powdery Mildew (Erysiphe graminis f.sp. hordei; Eg) The test is a direct antisporulant one, using a foliar spray. Leaves of barley seedlings, cultivar Golden Promise, are inoculated by dusting with mildew conidia one day prior to treatment with the test compound. The inoculated plants are kept overnight at glasshouse ambient temperature and humidity prior to treatment. […] After drying, plants are returned to a compartment at ambient temperature and humidity for up to 7 days, followed by assessment. Assessment is based on the percentage of leaf area covered by sporulation compared with that on leaves of control plants.

[13] = test system: Leptosphaeria nodorum; assay: Direct antisporulant activity against wheat leafspot (Ln); type: in vivo; design: scale not given here; settings: foliar spray, 1 kg/ha; activity grade 1 or 2, not defined
Procedure: (e) Activity Against Wheat Leafspot (Leptosphaeria nodorum; Ln) The test is a direct antisporulant one, using a foliar spray. Leaves of wheat plants ([…]), at the single leaf stage, are inoculated by spraying with an aqueous suspension containing 8×10^5 spores/mi. The inoculated plants are kept for 24 hours in a high humidity compartment prior to treatment. […] After drying, the plants are kept for 5 days under normal glasshouse conditions, followed by assessment. Assessment is based on the percentage of leaf area covered by sporulation compared with that on leaves of control plants.

| SMILES | MIC [1] [µg/mL] | MIC [2] [µg/mL] | MIC [3] [µg/mL] | MIC [4] [µg/mL] | MIC [5] [µg/mL] | MIC [6] [µg/mL] | MIC [7] [µg/mL] | MIC ([8]; 30° C., 3, 7 and 10 days) [µg/mL] | Ph: activity against wheat eyespot [9] | Fs: activity against seedling wheat blight [10] | MIC ([8]; *only tested at 100 ppm) [µg/mL] | Pvp: direct protectant activity against vine downy mildew [11] | activity against Pvp ([11]; secondary screening) | Eg: activity against barley powdery mildew [12] | Ln: activity against wheat leafspot [13] |
| --- | --- | --- | --- | --- | --- | --- | --- | --- | --- | --- | --- | --- | --- | --- | --- |
| N#CN=[N+]([O-])c1cccc2c1OC(CO)C2 (stereo not drawn) [Example 12] | 100 (≈ 456 µM) | > 100 | > 100 | > 100 | 50 (≈ 228 µM) | 100 (≈ 456 µM) | 50 (≈ 228 µM) | 100 (≈ 456 µM) |  |  |  |  |  |  |  |
| N#CN=[N+]([O-])c1cccc2c1OC(CCl)C2 (stereo not drawn) [Example 13] | 100 (≈ 421 µM) | 100 (≈ 421 µM) | 100 (≈ 421 µM) | 10 (≈ 42.1 µM) | 100 (≈ 421 µM) | 100 (≈ 421 µM) | > 100 | 25 (≈ 105 µM) |  |  |  |  |  |  |  |
| CC1CCc2cccc([N+]([O-])=NC#N)c2O1 (stereo not drawn) [Example 14] | 25 (≈ 115 µM) | > 100 | 50 (≈ 230 µM) | 10 (≈ 46 µM) | > 100 | > 100 | 100 (≈ 460 µM) | < 5 | 2 |  |  |  |  |  |  |
| CC1(C)CCc2cc(Cl)cc([N+]([O-])=NC#N)c2O1 [Example 15] | > 100 | > 100 | 50 (≈ 188 µM) | 10 (≈ 37.6 µM) | 100 (≈ 376 µM) | > 100 | > 100 | > 100 | 2 | 2 |  |  |  |  |  |
| CC1(C)C=Cc2cccc([N+]([O-])=NC#N)c2O1 [Example 27] | 25 (≈ 109 µM) | > 100 | > 100 | 100 (≈ 436 µM) | > 100 | > 100 | 100 (≈ 436 µM) |  | 2 | 2 | < 100 |  |  |  |  |
| N#CN=[N+]([O-])c1ccc2c(c1)C=CCO2 [Example 28] | 25 to 50 (≈ 124 to 249 µM) | > 100 | 25 (≈ 124 µM) | 10 to 25 (≈ 49.7 to 124 µM) | 50 to 100 (≈ 249 to 497 µM) | > 100 | 100 (≈ 497 µM) | 25 (≈ 124 µM) |  |  |  |  |  |  |  |
| COC(=O)N=Nc1cc(C)cc2c1OC(C)(C)C2 [Example 32] |  |  |  |  |  |  |  |  |  |  |  | 1 |  |  |  |
| Cc1ccc(N=NC#N)c2c1CC(C)(C)O2 [Example 38] |  |  |  |  |  |  |  |  |  |  |  | 2 | high activity |  |  |
| C#CCOC(=O)N=Nc1ccc(C)c2c1OC(C)CC2 (stereo not drawn) [Example 39] |  |  |  |  |  |  |  |  |  |  |  |  |  | 1 | 1 |
| C#CCOC(=O)N=Nc1cc(C)c(Cl)c2c1OC(C)CC2 (stereo not drawn) [Example 41] |  |  |  |  |  |  |  |  |  |  |  | 1 |  | 1 |  |
| CCOC(=O)N=Nc1cc(C)c(Cl)c2c1OC(C)CC2 (stereo not drawn) [Example 42] |  |  |  |  |  |  |  |  |  |  |  |  |  | 2 |  |
| COC(=O)N=[N+]([O-])c1cc(C)cc2c1OC(C)(C)C2 [Example 44] |  |  |  |  |  |  |  |  |  |  |  | 1 |  | 2 |  |
